# Test results: patent US20130210771A1, “METHODS AND COMPOSITIONS FOR TREATING CANCERS” (IRM LLC, priority 2007, published 2013)
# Counter-ions that a name gives are not always drawn.
# What was measured:
# [1] = system: BCR-ABL positive leukemia; assay: treatment of mice transplanted with BCR-ABL positive bone marrow (CML-like disease); type: in vivo, mouse
# Description: Ptch+/− mice (Jackson Laboratory), Smo−/− mice (Deltagene), C57BL/6 mice (Jackson laboratory) and B6-Pep3b-Ly5.1 (Pep) mice) are maintained and genotyped as described. For bone marrow transplantation experiments, C57BL/6 males are injected with 5-FU (150 mg/kg) intraperitoneal and sacrificed four days later. Bone marrow mononuclear cells are flushed from the leg bones, red blood cells are lysed with ammonium-chloride and bone marrow cells are cultivated in DMEM containing 10% FBS, SCF, IL-6 and IL-3. Cells are infected with a pMSCV/BCR-ABL/IRES/GFP retrovirus, 5×10^5 mononuclear cells are transplanted into lethally irradiated C57BL/6 mice. Treatment with AMN107 50 mg/kg bid (Novartis, Basel) and cyclopamine 25 mg/kg bid (Novartis, Cambridge) started day 7 after transplantation for 14 days.
# Mice transplanted with BCR-ABL positive bone marrow is treated with either a suboptimal dose of the ABL inhibitor AMN107, or with a combination of AMN107 (50 mg/kg qd) and the Smo antagonist cyclopamine (25 mg/kg bid). Treatment is started seven days after transplantation and is continued for fourteen days total. At the end of the treatment, three mice in each group are sacrificed and bone marrow from 1 femur is plated in methyl cellulose colony assays without addition of cytokines to detect only BCR-ABL positive colonies.
# Eight days after the end of treatment, another three mice per group are sacrificed and examined for signs of relapse by comparing liver and spleen weight. […] The five remaining mice in each group are monitored for signs of disease and sacrificed when moribund.
# [2] = system: Ba/F3 cells transfected with p210 non-mutated BCR-ABL; conditions: cited from earlier work
# [3] = system: Ba/F3 cells transfected with E255V mutant BCR-ABL; conditions: cited from earlier work
# [4] = system: Ba/F3 cells transfected with M351T mutant BCR-ABL; conditions: cited from earlier work
# CML = CML therapy; cited from earlier work
# [5] = system: BCR-ABL positive bone marrow cells; assay: in vitro treatment of mixed bone marrow cultures from mice with CML-like syndrome, flow cytometry; type: cell-based, mouse
# Description: (§1) Bone marrow cells from diseased mice are cultured in DMEM media containing 10% FBS (Gibco), SCF (RDI), IL-3 and IL-6 (R&D systems). For in-vitro treatment experiments, 4×10^6 bone marrow or spleen cells are seeded into 1 well of a 6-well plate. Cyclopamine-KAAD (obtained from Toronto Research Chemicals) is dissolved as ×1,000 stock in DMSO. After 72 hours of treatment, cells are plated in methyl cellulose media containing SCF, IL-6, IL-3 and insulin from stem cell technologies (M3434) according to the manufacturer's instruction. Colonies are counted 5 days and 10 days after plating. After 12 days, cells are diluted from the plates, washed in PBS and then either stained for analysis of different cell types or replated into a second or third plating round.
# Flow cytometry stainings for analysis of hematological cell types is performed using the antibodies Sca-PE, Kit-APC, Lin markers CD3, Gr-1, CD11b, CD19, Ter119 all PE-Cy7 positive, CD4-PE, CD8-APC from BD Pharmingen according to the manufacturer's instructions. For cell cycle analysis of stem cells, cells are treated with cyclopamine for 48 hours, then stained with Lin markers, Kit-APC and Sca-PE. Stained bone marrow is then fixed in 2% Formalin. Cells are permeabilized with 70% chilled ethanol for at least 1 hour and then treated with propidium iodide (5 mg/ml) for at least 30 minutes. Cells are analyzed using a flow cytometer from Coulter. Annexin staining is performed after incubation of mixed bone marrow with cyclopamine for 24, 48 and 72 hours. Cells are stained with Annexin-PE antibody and 7-AAD (BD Bioscience) according to the manufacturer's instructions.
# Bone marrow from mice with CML-like syndrome which contained about 50% BCR-ABL GFP positive cells versus 50% normal bone marrow cells is used. […] GFP positive cells after in vitro treatment with cyclopamine (2 μM or 5 μM) can be detected by flow cytometry analysis.
# (§2) Gli1 transcript levels in the bone marrow are reduced after treatment with cyclopamine, verifying the inhibition of the hedgehog signaling pathway in those cells by the compound (FIG. 2B). In FIG. 2B, bone marrow cultures are treated with either DMSO alone or different concentrations of cyclopamine (2 μM or 5 μM) for six hours. RNA is extracted from treated cultures and Gli1 transcript levels are measured by Taqman PCT and normalized to GAPDH. Assays are done in triplicates.
# [6] = system: BCR-ABL positive colonies; assay: methyl cellulose colony assay of pretreated mixed bone marrow and spleen cultures; type: cell-based, mouse; conditions: 10, 5, 2.5, 1 and 0 uM for 48 hours; colonies counted 10 days after plating, no cytokines (FIG. 2C)
# Description: as §1
# To further validate the effect of hedgehog pathway inhibition on the self renewing progenitor and leukemic stem cell population, mixed bone marrow and spleen cultures are treated with different concentrations of cyclopamine-KAAD (10, 5, 2.5, 1 and 0 uM) for 48 hours. The cells are then plated in methyl cellulose plates without supplementary cytokines, so that only BCR-ABL positive cells can survive. Colonies are counted 10 days after plating.
# Aurora kinases = conditions: cited from earlier work
# [7] = system: human CML K562 cells selected for resistance to imatinib; conditions: cited from earlier work
# Gli1 = Gli1 transcript levels in treated bone marrow cultures (Taqman PCR); type: cell-based, mouse; conditions: 2 μM or 5 μM, six hours, normalized to GAPDH (FIG. 2B)
# Description: RNA is extracted from CD34+ cells from CML patients in chronic phase or blast crisis of disease, from whole bone marrow or from sorted Lin−Kit+Sca+ positive cells using a Qiagen RNA extraction kit according to the manufacturer's recommendation. Quantitative PCR is assessed by Taqman PCR. Primers and probes are obtained from Applied Biosystems.
# as §2
# [8] = eight days after the end of treatment
# [9] = mixed bone marrow cultures, 72 hours (FIG. 2A)
smiles,measurement,setting,value
"Cc1cn(-c2cc(NC(=O)c3ccc(C)c(Nc4nccc(-c5cccnc5)n4)c3)cc(C(F)(F)F)c2)cn1 [AMN107, nilotinib]","peripheral blood cell counts, spleen and liver weights",[1]; at the end of the treatment,normal
same,average spleen size relative to the combination group,[1]; [8],about double
same,liver weight relative to the combination group,[1]; [8],much higher
same,average survival after end of treatment,"[1]; five mice per group, sacrificed when moribund (FIG. 5C)",eight
"NC(=O)c1cccc(-c2cc(Nc3ccc(OC(F)(F)F)cc3)ncn2)c1 [GNF-2, 3-[6-[[4-(trifluoromethoxy)phenyl]amino]-4-pyrimidinyl]benzamide]","proliferation of Ba/F3 cells, p210 non-mutated BCR-ABL",[2],inhibits the proliferation
same,"proliferation of Ba/F3 cells, E255V mutant BCR-ABL",[3],inhibits the proliferation
same,"proliferation of Ba/F3 cells, M351T mutant BCR-ABL",[4],inhibits the proliferation
Cc1ccc(NC(=O)c2ccc(CN3CCN(C)CC3)cc2)cc1Nc1nccc(-c2cccnc2)n1 [Imatinib mesylate],response rates,CML,more than 96%
CC1=C2C[C@H]3[C@@H](CC=C4CC(=O)CC[C@@]43C)[C@@H]2CC[C@]12O[C@@H]1C[C@H](C)CN(CCNC(=O)CCCCCNC(=O)CCc3ccccc3)[C@H]1[C@H]2C [KAAD-cyclopamine],reduction of the GFP/BCR-ABL positive population compared to the GFP negative population,"[5]; mixed bone marrow cultures, three days, 2 μM or 5 μM",dose dependent reduction
same,BCR-ABL positive colonies,[6],dose dependent reduction
Cc1cc(Nc2cc(N3CCN(C)CC3)nc(Sc3ccc(NC(=O)C4CC4)cc3)n2)n[nH]1 [MK-0457],inhibition of all three Aurora kinases,Aurora kinases,nanomolar range
Cc1cc(Nc2ncc3cc(-c4c(Cl)cccc4Cl)c(=O)n(C)c3n2)ccc1F [PD180970],proliferation of imatinib-resistant K562 cells over-expressing Lyn,[7],inhibited
CC1=C2C[C@H]3[C@@H](CC=C4C[C@@H](O)CC[C@@]43C)[C@@H]2CC[C@]12O[C@@H]1C[C@H](C)CN[C@H]1[C@H]2C [cyclopamine],"alterations in the cell cycle, complete bone marrow","[5]; 48 hours, propidium iodide",relative increase of the G1 phase compared to S phase and G2 phase
same,cell cycle analysis of the leukemic stem cell population,"[5]; 48 hours, propidium iodide",complete loss of the G2 phase
same,"apoptosis induction in BCR-ABL positive bone marrow cells, time",[5]; AnnexinV staining,≤ 24 h
same,reduction of BCR-ABL positive myeloid progenitor cells (Lin−Kit+Sca−),[5]; [9],more than 80%
same,reduction of the Lin−Kit+Sca+ leukemic stem cell population,[5]; [9],around 70%
same,Gli1 transcript levels in the bone marrow,Gli1,reduced
